# Test results: patent publication EP1379634B1 (THE UNIVERSITY OF GEORGIA RESEARCH FOUNDATION, INC., priority 2001, dated 2002)
# Residues, ends and D or L forms follow the SMILES beside them. *: point of attachment. AFC = O=c1cc(C(F)(F)F)c2ccc(N*)cc2o1; Cbz = O=C(OCc1ccccc1)*; CH2F = FC*
# Legend:
# [1] = tested on: purified Taenia solium cysteine protease; experiment: Substrate cleavage screen of AFC-linked peptides (Step II), purified protease; format: biochemical; conditions: 0.4 M Citrate, pH 4.9, 0.01 M cysteine, 18 h, 37 °C
# Method: In this step, the most efficacious substrate for detection of the cysteine protease (high Kcat substrate) was determined in vitro along with those substrates which were not well cleaved (low kcat substrates). From this point forward, the following conditions refer to all assays: "assay buffer" refers to 0.4 M Citrate, pH 4.9 (the pH optima of the protease). Incubation time was 18 hours at 37°C. These conditions were determined by our preliminary data to be best for kinetic evaluation of the protease. […] The experiments were conducted in 6X50 […] Borosilicate mini-culture tubes (Fisher Scientific), and a fluorometer (Turner) was employed for detection of AFC cleavage.
# Since the full 8,420 amino acid possibilities for cleavage were not available, representative substrates were employed. […] In order to choose this subset, representative amino acids (i.e., selected from the categories of acidic, basic, nonpolar, uncharged) were chosen so as to create as many categories of motifs as feasible for the P3-P1 positions with a set of 67 small peptides (see lists at Fig. 4a and Fig. 4b). The target cysteine protease from Taenia solium was isolated using the purification methods described previously in the patent WO 00/63350.
# Approximately 1 ug (or a proteolytically detectable amount) of the purified target cysteine protease was incubated individually, with 1 ug of each of the available substrates in 500 uL of assay buffer. During this setup, the substrate was pre-incubated in the assay buffer for a short period of time (20 minutes) in order to reach an equilibrated status before the addition of the protease. Cleavage assessments were based upon the property of the protease to cleave synthetic peptide substrates linked at the C-terminus to 7-Amino-4-Trifluoromethyl Coumarin (AFC) as previously described. AFC linked tripeptides, dipeptides, and monopeptides, (with a variety of permutations at P3-P1) were available from Enzyme Systems Products (Livermore, CA), and were used as the source of the subset. Following incubation of enzyme preparations overnight (18 h, 37 °C) with peptide in assay buffer (Citrate, pH 4.9, supplemented with 0.01 M cysteine), free AFC concentrations were measured fluorometrically (excitation 405 nm, emission 505 nm). The proteolytic cleavage released the AFC group, which was measurable as a free molecule by a standard fluorometer and converted into molar quantities, based upon a previously established standard curve. The simplicity of AFC detection by the fluorometer was a key factor which expedited and simplified the procedures.
# In the assay, 1 ug of the purified Taenia cysteine protease was added to a saturating amount of Z-Phe-Arg-AFC (4X10^-5 M) in assay buffer. The experiment was conducted in triplicate and repeated at least 5 times until we were certain that variability in AFC cleavage was not statistically significant.
# Vmax for the cleavage of substrates by the purified target protease and Vmax for substrates cleaved by the crude mix protease were each calculated using conventional kinetic modeling calculations already described in the art.
# Cathepsin L = Cathepsin L (Homo sapiens, UniProt P07711); experiment: Selectivity test (Steps VI and IX), Cathepsin L; format: biochemical; conditions: pH 5.5, substrate Z-FR-AFC
# Method: In order to perform the assay, the vehicle (for Step VI) or inhibitor (for Step IX) were incubated with the appropriate substrate in the correct assay buffer and allowed to equilibrate. Subsequently, the protease was added, and the assay was allowed to incubate for an appropriate time. The concentrations used in this experiment were as follows: Vehicle was set up at 4 X 10^-5 M in final assay buffer; Inhibitor was set up at 3 X 10^-10 M in the final assay buffer. Preferably the dosages employed should be the minimal amount of vehicle or inhibitor necessary to induce inhibition. […] Substrates were set up based upon the preferred substrate for cleavage of the particular enzyme.
# Positive controls were set up similarly as described for test controls, except that a solvent blank was added in substitution for the inhibitor or vehicle (in a volume equal to the volume of inhibitor or vehicle addition). All of the inhibitors and vehicles could be dissolved in dimethylsulfoxide (DMSO), and therefore, this was the solvent of choice. Negative controls were set up by adding the inhibitor or vehicle and the preferred substrates in a tube without the protease. All potential non-proteolytic liberation of AFC was therefore controlled for in this tube.
# All controls were set up in triplicate, and experiments were repeated a minimum of five times.
# Percent inhibition was calculated as: %Inhibition = ((AFC positive for "SI"−AFC negative for "SI")−(AFC test−AFC negative for "SI"))/(AFC positive for "SI"−AFC negative for "SI") × 100 [formula]
# In this preliminary test, we employed the following human-derived enzymes (with indicated mechanistic class in parentheses): Cathepsin B (cysteine), Cathepsin L (cysteine), Cathepsin H (cysteine), Cathepsin D (aspartic), Trypsin (serine), the purified Taenia solium cysteine protease, and the Taenia solium crude mix. Cathepsin B was prepared in an assay buffer of 10 mM L-cysteine in 0.4 M Citrate buffer, pH 6.1, using Z-ARR-AFC as the cleavage substrate. Cathepsin L was prepared in an assay buffer of 10 mM L-cysteine in 0.4 M Citrate buffer, pH 5.5, using Z-FR-AFC as the cleavage substrate. Cathepsin H was prepared in an assay buffer of 10 mM L-cysteine in 0.15 M PBS buffer, pH 6.8, using L-R-AFC as the cleavage substrate. Cathepsin D was prepared in an assay buffer of 0.15 M PBS, pH 7.1, using Z-RGFFP-AFC as the cleavage substrate. Trypsin was prepared in an assay buffer of 0.15 M PBS, pH 8.0, supplemented with 100 mM CaCl2 and with Z-R-AFC as the cleavage substrate. Enzyme was incubated so that it was at least 50 times less than the concentration of substrate in order to insure saturating conditions.
# Cathepsin L, sequence (P07711 114-333): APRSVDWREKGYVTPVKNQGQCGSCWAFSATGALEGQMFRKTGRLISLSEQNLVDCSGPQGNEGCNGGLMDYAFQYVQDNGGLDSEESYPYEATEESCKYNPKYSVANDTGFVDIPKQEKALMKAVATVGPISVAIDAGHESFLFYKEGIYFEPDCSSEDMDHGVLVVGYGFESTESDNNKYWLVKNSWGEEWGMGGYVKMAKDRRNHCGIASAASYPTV
Molecule,cleavage of AFC substrate (Vmax) [1],"% inhibition (Cathepsin L; inhibitor 3 X 10^-10 M, 0.0003 µM)",cleavage of AFC substrate (Vmax) ([1]; listed as M-LY-AFC),% inhibition (Cathepsin L; vehicle 4 X 10^-5 M),"% inhibition (Cathepsin L; vehicle 4 X 10^-5 M, 40 µM)"
"CC(C)C[C@H](NC(=O)OCc1ccccc1)C(=O)N[C@@H](CC(C)C)C(=O)N[C@@H](CC(C)C)C(=O)Nc1ccc2c(C(F)(F)F)cc(=O)oc2c1 [Z-LLL-AFC, Z-Leu-Leu-Leu-AFC] (Cbz-Leu-Leu-Leu-{AFC})",noncleavable,,,,
"CC(C)C[C@H](NC(=O)OCc1ccccc1)C(=O)N[C@@H](CC(C)C)C(=O)N[C@@H](Cc1ccc(O)cc1)C(=O)CF [Z-LLY-FMK, Z-Leu-Leu-Tyr-FMK] (Cbz-Leu-Leu-Tyr-CH2F)",,did not inhibit cathepsin L at all,,,
Mu-Leu-Tyr-AFC [Mu-LY-AFC],not cleaved,,noncleavable,25%,subtle inhibition
"CC(C)C[C@H](NC(=O)OCc1ccccc1)C(=O)N[C@@H](CC(C)C)C(=O)N[C@@H](Cc1ccc(O)cc1)C(=O)Nc1ccc2c(C(F)(F)F)cc(=O)oc2c1 [Z-LLY-AFC, Z-Leu-Leu-Tyr-AFC] (Cbz-Leu-Leu-Tyr-{AFC})",noncleavable,,,,
